The species entered for test [1] is Cavia porcellus. Briefly: Antibody response to the compound was determined in guinea pigs. The format is functional.
The species entered for test [2] is Cavia porcellus. As to the kind of experiment: Adjuvant activity was determined by the ability of compound to stimulate delayed hypersensitivity by intradermal injection of 10 ug of ovalbumin after 48 hr in guinea pigs. The format is functional.

The structures appear in SMILES notation.

`COc1ccc2c(c1)Oc1cc(O)ccc1/C2=C1C=C/C(=N/c2nc(O)nc(NCCCC[C@H](NC(=O)CC[C@@H](NC(=O)[C@H](C)NC(=O)[C@@H](C)OC3C(O)C(CO)OC(O)C3NC(C)=O)C(N)=O)C(=O)O)n2)C=C\1C(=O)O` (stereo partly drawn) came in with an Antibody response in the test listed under Cavia porcellus [1] of 192. Moreover, the DTH in the test filed under Cavia porcellus [2] came out at 20.2.

`COc1ccc2c(c1)Oc1cc(O)ccc1/C2=C1C=C/C(=N/c2nc(O)nc(OCC3OC(O)C(NC(C)=O)C(O[C@H](C)C(=O)N[C@@H](C)C(=O)N[C@H](CCC(=O)O)C(N)=O)C3O)n2)C=C\1C(=O)O` (stereo partly drawn): in the test filed under Cavia porcellus [1], the Antibody response is 123.34. Also, in the test listed under Cavia porcellus [2], the DTH is recorded as 11.5.

`COc1ccc2c(c1)Oc1cc(O)ccc1/C2=C1C=C/C(=N/c2nc(O)nc(NCCCC[C@H](NC(=O)[C@@H](C)OC3C(O)C(CO)OC(O)C3NC(C)=O)C(=O)N[C@H](CCC(=O)O)C(N)=O)n2)C=C\1C(=O)O` (stereo partly drawn): the Antibody response in the test filed under Cavia porcellus [1] stood at 17.6. Also, the DTH in the test listed under Cavia porcellus [2] was found to be 2.9.

As to `CC(=O)N[C@H]1C(O)O[C@H](CO)[C@@H](O)[C@@H]1O[C@H](C)C(=O)N[C@@H](C)C(=O)N[C@H](CCC(=O)O)C(N)=O` (stereo partly drawn) [MURAMYL DIPEPTIDE], the Antibody response in the test listed under Cavia porcellus [1] stood at 82.49. Besides, the DTH in the test filed under Cavia porcellus [2] was 10.6.

The values above are taken from ChEMBL document CHEMBL1124282, “Synthesis of fluorescent muramyl dipeptide congeners. 2” (1988).
